Measurements reported in PMC3884839, “Pharmacokinetics and pharmacodynamics utilizing unbound target tissue exposure as part of a disposition-based rationale for lead optimization of benzoxaboroles in the treatment of Stage 2 Human African Trypanosomiasis” (Parasitology, 2013).
In brackets after ≈: the same amount, converted by molar mass.

Assays:
L929 mammalian cell line = test: L929 mammalian cell cytotoxicity / selectivity; type: cell-based
[1] = Binding to human plasma protein by rapid equilibrium dialysis; type: in vitro ADME; settings: 1 μg mL^−1
Method: Binding to plasma proteins, brain homogenates or proteins in serum-fortified HMI-9 media was determined by rapid equilibrium dialysis (RED) (Pierce, Rockford, IL) using a 48-well plate-based format according to the manufacturer's instructions. Briefly, test compound was added to fresh plasma (Bioreclamation, Liverpool, NY) at the required concentrations, freshly prepared brain homogenate or media. Duplicate aliquots of each sample were transferred into the sample chambers of the RED devices, and dialysis buffer (BupH PBS) was added to the buffer chambers. The plates were sealed and incubated at 37 °C for 4 h. After dialysis, samples collected from the buffer and tissue chambers were treated with ice-cold methanol (3 volumes for plasma or HMI-9 media, 4 volumes for brain) to precipitate proteins. The treated samples were centrifuged for 10 min at approximately 3000 g at 15 °C. The supernatants were assayed for test compound by LC-MSMS. Calibration standards and quality control samples were prepared in matched matrix and assayed with samples. Values for unbound and bound fractions and mass balance were calculated. Concordance of binding for each batch of plasma was confirmed by assay of warfarin, imipramine and carbamezapine. Acceptance criterion for mass balance was 70–120%.

T. b. brucei = test: In vitro reversibility of trypanocidal effects (transient exposure); type: cell-based, Trypanosoma brucei brucei
Method: The time and concentration dependency for oxaborole-mediated killing of T. b. brucei, under constant (time-kill) and transient (reversibility) drug-pressure, was determined as described previously (Nare et al. 2010).
Reversibility was assessed as the ability T. b. brucei parasites to recover from transient exposure (0–24 h) to test benzoxaboroles (0·02–10 μg mL^−1). Trypanosomes were seeded in clear 96-well ‘V’-bottom plates at a density of 1×10^5 parasites per well; one plate was prepared for each time-point. After the designated incubation time, each plate was removed from the incubator and centrifuged at 4400 g for 5 min to sediment parasites. The supernatant containing the test compound was aspirated and three washing cycles were performed where 100 μl of warmed HMI-9 media was added to each well and then aspirated. […] Thus, each concentration and time-point was evaluated in triplicate. Each plate was incubated for a further 72 h, whereupon, trypanocidal activity was determined using resazurin (Sigma-Aldrich, St. Louis, MO) where 20 μl of a 25 mg/100 mL stock in PBS was added, incubated for an additional 4–6 h and fluorescence measured using the EnVision plate reader (excitation wavelength, 530 nm and emission wavelength, 590 nm).

[2] = Single oral dose pharmacokinetics and CNS penetration in male CD-1 mice; type: in vivo, mouse
Method: The CNS disposition and pharmacokinetics of the benzoxaboroles were evaluated in infected and uninfected mice following oral administration. In vivo phases of single-dose rodent PK studies were performed at Vivisource (Waltham, MA) following Institutional Animal Care and Use Committee (IACUC) review in an Association for Assessment and Accreditation of Laboratory Animal Care International (AAALAC)-approved facility. Studies in Trypanosoma brucei brucei (TREU 667 strain) infected mice, or uninfected satellite animals, were performed after IACUC review at Pace University (NewYork, NY).
Male CD-1 or female Swiss Webster mice (approximately 25 g) were administered test compounds by oral gavage either once (QD) or twice per day (Q12 h) with doses ranging between 6 and 100 mg kg^−1 as described below. All compounds were formulated as an in situ sodium salt in 2% (v/v) ethanol, 5% (m/v) dextrose, to yield typically clear colourless solutions that were administered at 4 mL kg^−1. Blood samples for pharmacokinetic studies were collected into polypropylene tubes containing K2EDTA anticoagulant and stored on wet ice until centrifuged and processed to plasma. Plasma was stored at −80 °C. Blood samples from mice were collected via cardiac puncture under terminal anaesthesia. Rodents were euthanized in a CO2 chamber before collection of terminal blood or tissue samples. Brain tissues were blotted dry and stored at approximately −80 °C.
Plasma (50 μL) was treated with 4 volumes of ice-cold methanol (containing 25 ng mL^−1 of either deuterium (d6)-labelled SCYX-7158 internal standard (SCYX-5232) for SCYX-7158 analyses or a related benzoxaborole for other compounds) to precipitate proteins. Treated samples were gently mixed on a 96-well plate shaker for approximately 10 min then centrifuged at approximately 3000 g and 15 °C for 15 min. Supernatants were transferred to fresh 96-well plates for analysis by means of LC-MSMS. Samples of tissue homogenate (50 μL), or buffer from protein binding studies, were treated similarly to plasma samples.
All biological samples were assayed by a verified LC-MSMS method employing two dimensional chromatographic separation to overcome ion suppression (Annesely, [2003]) caused by co-elution of endogenous components with benzoxaboroles. In summary, treated samples were loaded onto Phenomenex (Torrance, CA) Synergi Polar RP, 4 μ, 50×2 mm extraction columns and subsequently back-eluted onto a Phenomenex Luna C8(2) 3 μ, 50×2 mm analytical columns protected by a Phenomenex C8 guard cartridge. Mobile phases for extraction and analytical columns consisted of 5 mM ammonium formate and 0·1% (v/v) formic acid in water (A), and 5 mM ammonium formate and 0·1% (v/v) formic acid in methanol (B). […]

For `CC1(C)OB(O)c2cc(NC(=O)c3ccc(F)cc3C(F)(F)F)ccc21` [SCYX-7158], the IC50 (L929 mammalian cell line; Mus musculus, L929 mammalian cell line, cytotoxicity) was 50 µg/mL (≈ 136 µM), the Selectivity (L929 mammalian cell line; parasite vs L929) was “⩾138” and the Mass balance [1] was 110%. The “reduction in survival relative to untreated control parasites” value (T. b. brucei; Cu 0·123 μg mL^−1 (Ct 0·313 μg mL^−1), 24 h incubation) was 24%, the “exposure time tolerated without impact on survival” value (T. b. brucei; Cu 1·11 μg mL^−1 (Ct 1·25 μg mL)) was 8 h and the “time CNS (brain) total concentration above MIC” value [2] was ~20 h.
